What all share (type): biochemical
In one assay the target is T1, JAK1 (Homo sapiens, UniProt P23458).
T1 construct: made in house; host or cells: SF9 insect cells (baculovirus)
Description: JAK1 inhibition (Table 4). Particulars: read-out: JAK1 Ki.

Another assay has as its target T2, JAK2 (Homo sapiens, UniProt O60674).
T2 construct: made in house; host or cells: SF9 insect cells (baculovirus)
Description: JAK2 inhibition (Table 4). The conditions noted are these: read-out: JAK2 Ki.

For a further assay, the target named is T3, JAK3 (Homo sapiens, UniProt P52333).
T3 construct: made in house; host or cells: SF9 insect cells (baculovirus)
T3 sequence (P52333 783-1124): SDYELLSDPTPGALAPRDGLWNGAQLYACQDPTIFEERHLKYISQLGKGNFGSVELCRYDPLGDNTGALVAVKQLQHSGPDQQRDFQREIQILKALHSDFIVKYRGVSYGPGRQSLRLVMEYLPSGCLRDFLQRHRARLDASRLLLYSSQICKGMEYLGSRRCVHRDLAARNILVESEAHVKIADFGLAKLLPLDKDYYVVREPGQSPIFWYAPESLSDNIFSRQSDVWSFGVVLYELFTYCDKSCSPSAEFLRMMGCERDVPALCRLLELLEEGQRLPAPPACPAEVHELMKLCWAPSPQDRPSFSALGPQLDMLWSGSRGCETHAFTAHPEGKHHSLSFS
The experiment in a line: JAK3 inhibition (Table 4). Particulars: read-out: JAK3 Ki.

The next assay deals with T4, TYK2 (Homo sapiens, UniProt P29597).
T4 construct: made in house; host or cells: SF9 insect cells (baculovirus)
T4 sequence (P29597 873-1187): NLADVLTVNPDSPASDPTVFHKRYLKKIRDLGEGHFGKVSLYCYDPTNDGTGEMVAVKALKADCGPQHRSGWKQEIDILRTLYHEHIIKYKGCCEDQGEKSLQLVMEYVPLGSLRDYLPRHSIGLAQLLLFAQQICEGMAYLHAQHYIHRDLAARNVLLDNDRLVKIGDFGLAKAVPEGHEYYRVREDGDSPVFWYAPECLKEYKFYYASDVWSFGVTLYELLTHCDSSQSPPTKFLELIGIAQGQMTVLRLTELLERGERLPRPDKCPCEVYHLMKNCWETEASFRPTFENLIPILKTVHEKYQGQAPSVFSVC
Description: TYK2 inhibition (Table 4).

This passage reports Ki results from patent US8461328B2, “Tricyclic heterocyclic compounds, compositions and methods of use thereof” (Genentech, Inc., priority 2010, dated 2013).

T2 sequence (O60674 812-1132): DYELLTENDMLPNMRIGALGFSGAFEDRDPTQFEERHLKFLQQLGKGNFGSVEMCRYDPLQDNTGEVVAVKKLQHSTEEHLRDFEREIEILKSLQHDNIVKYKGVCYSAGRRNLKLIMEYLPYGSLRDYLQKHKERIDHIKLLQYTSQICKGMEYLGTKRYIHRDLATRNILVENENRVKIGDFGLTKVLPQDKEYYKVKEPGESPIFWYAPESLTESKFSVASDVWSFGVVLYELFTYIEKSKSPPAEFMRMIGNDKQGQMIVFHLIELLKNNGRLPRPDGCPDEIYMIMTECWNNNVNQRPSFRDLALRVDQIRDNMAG
T1 sequence (P23458 852-1154): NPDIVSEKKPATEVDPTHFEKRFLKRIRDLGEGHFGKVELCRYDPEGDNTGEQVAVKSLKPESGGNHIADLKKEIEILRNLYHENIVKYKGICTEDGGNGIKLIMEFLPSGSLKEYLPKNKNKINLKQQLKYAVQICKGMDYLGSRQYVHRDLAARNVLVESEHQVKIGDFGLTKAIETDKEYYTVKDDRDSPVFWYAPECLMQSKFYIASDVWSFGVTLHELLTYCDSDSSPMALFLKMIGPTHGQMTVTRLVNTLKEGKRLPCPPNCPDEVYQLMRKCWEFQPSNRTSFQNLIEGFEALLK

What is called Ki is a measure of affinity in units of concentration, obtained from inhibition or displacement. In the case of `O=C(Cc1nc2cnc3[nH]ccc3c2n1C1CCCOC1)N1CCS(=O)(=O)CC1` (racemic) [Example 979, 1-(1,1-Dioxo-1$1%6&-thiomorpholin-4-yl)-2-[1-(tetrahydro-pyran-3-yl)-1,6-dihydro-1,3,5,6-tetraaza-as-indacen-2-yl]-ethanone], the Ki turned out to be 0.0155 µM at JAK1, 0.238 µM on JAK2, 0.127 µM at JAK3 and 0.113 µM on TYK2.

Take `O=C(Cc1nc2cnc3[nH]ccc3c2n1C1CCCOC1)N1CCCOCC1` (racemic) [Example 980, 1-[1,4]Oxazepan-4-yl-2-[1-(tetrahydro-pyran-3-yl)-1,6-dihydro-1,3,5,6-tetraaza-as-indacen-2-yl]-ethanone]: the Ki on JAK1 came out at 0.0788 µM; on JAK2 it was 0.506 µM; on JAK3, 0.3 µM; on TYK2, 0.109 µM.

On to `CN1CCC(NC(=O)Cc2nc3cnc4[nH]ccc4c3n2C2CCCOC2)CC1` (racemic) [Example 981, N-(1-Methyl-piperidin-4-yl)-2-[1-(tetrahydro-pyran-3-yl)-1,6-dihydro-1,3,5,6-tetraaza-as-indacen-2-yl]-acetamide], for which the Ki on JAK1 came to 0.066 µM; on JAK2, 0.177 µM; on JAK3, 0.162 µM; on TYK2, 0.376 µM.

In the case of `O=C(Cc1nc2cnc3[nH]ccc3c2n1C1CCCOC1)N1CCCC(O)C1` (racemic) [Example 982, 1-(3-Hydroxy-piperidin-1-yl)-2-[1-(tetrahydro-pyran-3-yl)-1,6-dihydro-1,3,5,6-tetraaza-as-indacen-2-yl]-ethanone], the Ki on JAK1 is 0.0343 µM; on JAK2 it was 0.307 µM; on JAK3, 0.159 µM; at TYK2, 0.273 µM.

Regarding `O=C(Cc1nc2cnc3[nH]ccc3c2n1C1CCCOC1)NC1CCOCC1` (racemic) [Example 983, N-(Tetrahydro-pyran-4-yl)-2-[1-(tetrahydro-pyran-3-yl)-1,6-dihydro-1,3,5,6-tetraaza-as-indacen-2-yl]-acetamide], the inhibition constant (Ki) worked out at 0.0376 µM on JAK1, 0.157 µM at JAK2, 0.1 µM on JAK3 and 0.3 µM on TYK2.

Turning to `O=C(Cc1nc2cnc3[nH]ccc3c2n1C1CCCOC1)N1CCC(CO)CC1` (racemic) [Example 984, 1-(4-Hydroxymethyl-piperidin-1-yl)-2-[1-(tetrahydro-pyran-3-yl)-1,6-dihydro-1,3,5,6-tetraaza-as-indacen-2-yl]-ethanone], the Ki was 0.0177 µM at JAK1, 0.295 µM at JAK2, 0.173 µM at JAK3 and 0.253 µM on TYK2.

For `O=C(Cc1nc2cnc3[nH]ccc3c2n1C1CCCOC1)N1CCSCC1` (racemic) [Example 985, 2-[1-(Tetrahydro-pyran-3-yl)-1,6-dihydro-1,3,5,6-tetraaza-as-indacen-2-yl]-1-thiomorpholin-4-yl-ethanone], the Ki was determined as 0.0196 µM on JAK1, 0.366 µM on JAK2, 0.146 µM on JAK3 and 0.175 µM at TYK2.

On to `O=C(Cc1nc2cnc3[nH]ccc3c2n1C1CCCOC1)N1CCC(O)CC1` (racemic) [Example 986, 1-(4-Hydroxy-piperidin-1-yl)-2-[1-(tetrahydro-pyran-3-yl)-1,6-dihydro-1,3,5,6-tetraaza-as-indacen-2-yl]-ethanone], for which the Ki at JAK1 stood at 0.0175 µM; on JAK2, 0.314 µM; on JAK3, 0.171 µM; at TYK2, 0.187 µM.

With `Cc1nc2cnc3[nH]ccc3c2n1C1CCCCNC1` (racemic) [Example 987, 1-Azepan-3-yl-2-methyl-1,6-dihydro-1,3,5,6-tetraaza-as-indacene], the Ki on JAK1 came to 0.0397 µM; at JAK2, 0.208 µM; on JAK3, 0.643 µM; on TYK2 it was 0.267 µM.

As for `N#CCC(=O)N1CCCCC(n2cnc3cnc4[nH]ccc4c32)C1` (racemic) [Example 988, 3-Oxo-3-[3-(6H-1,3,5,6-tetraaza-as-indacen-1-yl)-azepan-1-yl]-propionitrile], the Ki at JAK1 was 0.00419 µM; at JAK2, 0.00623 µM; at JAK3, 0.00933 µM; on TYK2, 0.0291 µM.

For the compound `N#CCCN1CCCCC(n2cnc3cnc4[nH]ccc4c32)C1` (racemic) [Example 989, 3-[3-(6H-1,3,5,6-Tetraaza-as-indacen-1-yl)-azepan-1-yl]-propionitrile], the Ki was 0.0109 µM on JAK1, 0.0146 µM at JAK2, 0.0394 µM at JAK3 and 0.042 µM on TYK2.

With `Cc1nc2cnc3[nH]ccc3c2n1C1CCc2nc[nH]c2C1` (racemic) [Example 990, 2-Methyl-1-(4,5,6,7-tetrahydro-3H-benzoimidazol-5-yl)-1,6-dihydro-1,3,5,6-tetraaza-as-indacene], the inhibitory constant (Ki) stood at 0.0846 µM at JAK1, 0.204 µM on JAK2, 0.0919 µM at JAK3 and 0.325 µM at TYK2.

As to `N#CCCn1cc2c(n1)CCC(n1cnc3cnc4[nH]ccc4c31)C2` (racemic) [Example 991, 3-[5-(6H-1,3,5,6-Tetraaza-as-indacen-1-yl)-4,5,6,7-tetrahydro-indazol-2-yl]-propionitrile], the Ki at JAK1 was found to be 0.00926 µM; on JAK2, 0.0117 µM; at JAK3, 0.109 µM; on TYK2, 0.0586 µM.

As for `C[C@@H](O)c1nc2cnc3[nH]ccc3c2n1[C@H]1CC[C@@H](N2CCC(C#N)CC2)CC1` (relative stereo) [Example 611, Cis 1-{4-[2-(1-hydroxy-ethyl)-6H-1,2,3,5,6-tetraaza-as-indacen-1-yl]-cyclohexyl}-piperidine-4-carbonitrile], the Ki on JAK1 came out at 0.00689 µM; on JAK2, 0.142 µM; on JAK3, 0.139 µM; at TYK2, 0.0496 µM.

In the case of `Cc1nc2cnc3[nH]ccc3c2n1[C@@H]1C[C@@H]2CC[C@H]1O2` (relative stereo) [Example 684, Endo-2-Methyl-1-(7-oxa-bicyclo[2.2.1]hept-2-yl)-1,6-dihydro-1,2,3,5,6-tetraaza-as-indacene], the Ki at JAK1 came to 0.00757 µM; at JAK2, 0.0216 µM; at JAK3 it was 0.0115 µM; at TYK2, 0.0378 µM.

On to `c1cc2c(ncc3ncn(C4CCCCNC4)c32)[nH]1` (single isomer, unassigned) [Example 110, 1-Azepan-3-yl-1,6-dihydro-1,2,3,5,6-tetraaza-as-indacene], for which the Ki at JAK1 turned out to be 0.154 µM; at JAK2 it was 0.292 µM; at JAK3, 0.704 µM; on TYK2, 0.647 µM.

Consider `c1cc2c(ncc3ncn(C4CCCCNC4)c32)[nH]1` (single isomer, unassigned) [Example 110a, 1-Azepan-3-yl-1,6-dihydro-1,2,3,5,6-tetraaza-as-indacene], for which the Ki on JAK1 was 0.0136 µM; on JAK2 it was 0.0818 µM; on JAK3, 0.194 µM; at TYK2, 0.106 µM.

As to `Cc1nc2cnc3[nH]ccc3c2n1C1CCC2CC(=O)NC2C1` (single isomer, unassigned) [Example 112, 6-(2-Methyl-6H-1,2,3,5,6-tetraaza-as-indacen-1-yl)-octahydro-indol-2-one], the Ki at JAK1 was 0.00409 µM; at JAK2 it was 0.0108 µM; on JAK3, 0.0634 µM; on TYK2 it was 0.0175 µM.

As for `Cc1nc2cnc3[nH]ccc3c2n1C1CCC2CC(=O)NC2C1` (single isomer, unassigned) [Example 112a, 6-(2-Methyl-6H-1,2,3,5,6-tetraaza-as-indacen-1-yl)-octahydro-indol-2-one], the Ki on JAK1 amounted to 0.0644 µM; at JAK2, 0.0583 µM; on JAK3, 0.3 µM; on TYK2 it was 0.63 µM.

Turning to `CCC(COC)n1c(C(C)O)nc2cnc3[nH]ccc3c21` (single isomer, unassigned) [Example 182, 1-[1-(1-Methoxymethyl-propyl)-1,6-dihydro-1,2,3,5,6-tetraaza-as-indacen-2-yl]-ethanol], the Ki on JAK1 was determined as 0.167 µM; at JAK2, 0.435 µM; at JAK3 it was 0.154 µM; on TYK2, 0.955 µM.

Consider `CCC(COC)n1c(C(C)O)nc2cnc3[nH]ccc3c21` (single isomer, unassigned) [Example 182a, 1-[1-(1-Methoxymethyl-propyl)-1,6-dihydro-1,2,3,5,6-tetraaza-as-indacen-2-yl]-ethanol], for which the inhibitory constant (Ki) was found to be 0.291 µM at JAK1, 0.888 µM on JAK2, 0.351 µM on JAK3 and 3.18 µM on TYK2.

Consider `CN1CCOCC1C(=O)N1CCC(n2cnc3cnc4[nH]ccc4c32)CC1` (single isomer, unassigned) [Example 197, (4-Methyl-morpholin-3-yl)-[4-(6H-1,2,3,5,6-tetraaza-as-indacen-1-yl)-piperidin-1-yl]-methanone], for which the Ki on JAK1 amounted to 0.0325 µM; on JAK2 it was 0.202 µM; on JAK3, 3.24 µM; on TYK2 it was 0.667 µM.

Turning to `CN1CCOCC1C(=O)N1CCC(n2cnc3cnc4[nH]ccc4c32)CC1` (single isomer, unassigned) [Example 197a, (4-Methyl-morpholin-3-yl)-[4-(6H-1,2,3,5,6-tetraaza-as-indacen-1-yl)-piperidin-1-yl]-methanone], the Ki on JAK1 is 0.122 µM; at JAK2, 0.217 µM; at JAK3, 1.93 µM; at TYK2 it was 2.72 µM.
